{"source": "patent US5583101A", "about": "“Use of nitrogen oxide species and adducts to inhibit skeletal muscle contraction” (Harvard College, priority 1994, dated 1996)", "key": {"other NOS isoforms": {"tested_on": "other NOS isoforms", "conditions": "Misko et al. 1993; cited from earlier work"}, "[1]": {"tested_on": "rat diaphragm fiber bundles", "experiment": "Force-frequency relationship (isometric force) of isolated diaphragm fiber bundles", "format": "cell-based", "conditions": "for contractile increases (force-frequency relationship): same dose range as NIZ (100 uM-1 mM)", "experimental": "FIGS. 3A and 3B. Skeletal muscle contractile properties are related to NOS activity Muscles (Soleus, n=6; DPH, diaphragm fiber bundles, n=7; EDL, extensor digitorum longus, n=5) were surgically isolated from deeply anesthetized rats, mounted in vitro at optimal length, and incubated at 37° C. in oxygenated buffered Krebs-Ringer solution containing d-tubocurarine 25 uM. Direct field stimulation (0.2 ms pulses, 250 ms train duration, supramaximal voltage) was used to evoke twitch (1 Hz) and tetanic (15, 30, 40, 50, 80, 120, 200 Hz) contractions. Isometric force was measured. Upper panel (A) depicts the average forces (+/-SE) developed at frequencies of 1-200 Hz. Tetanic stimulation at any submaximal frequency (15-150 Hz) evoked different amounts of force production among the muscles (Soleus>DPH>EDL). A vertical dotted line identifies the frequency (40 Hz) used in comparisons of NOS activity.\nFIGS. 4A and 4B. Endogenous NO depresses contractile function. Fiber bundles were isolated from rat diaphragm and studied using methods described in FIG. 3. Panel A depicts the average forces (+SE) developed at stimulus frequencies of 1-120 Hz by muscles incubated in Krebs-Ringer solution containing either 7-nitroindazole (NIZ; n=3 per frequency) or aminoguanidine (AMG, n=3 per frequency). Forces are expressed as percentages of maximal tetanic force (PO)."}, "[2]": {"tested_on": "rat diaphragm fiber bundles", "experiment": "Force developed at 40 Hz (submaximal tetanic contraction) by diaphragm fiber bundles", "format": "cell-based", "experimental": "FIGS. 3A and 3B. […] Direct field stimulation (0.2 ms pulses, 250 ms train duration, supramaximal voltage) was used to evoke twitch (1 Hz) and tetanic (15, 30, 40, 50, 80, 120, 200 Hz) contractions. Isometric force was measured. Upper panel (A) depicts the average forces (+/-SE) developed at frequencies of 1-200 Hz. […] A vertical dotted line identifies the frequency (40 Hz) used in comparisons of NOS activity.\nFIGS. 4A and 4B. […] Fiber bundles were isolated from rat diaphragm and studied using methods described in FIG. 3. Panel A depicts the average forces (+SE) developed at stimulus frequencies of 1-120 Hz by muscles incubated in Krebs-Ringer solution containing either 7-nitroindazole (NIZ; n=3 per frequency) or aminoguanidine (AMG, n=3 per frequency). Forces are expressed as percentages of maximal tetanic force (PO).\nFiber bundles were isolated from rat diaphragm and studied using methods described in the description of FIG. 3. Data are mean forces (±SE) developed at 40 Hz by fiber bundles (n=5 or 6/group) treated with NLA (transcribed from FIG. 4B), NLA plus dipyramidole (DPM; phosphodiesterase inhibitor) 10 uM, 8-bromo-cGMP (BGMP; exogenous CGMP analogue), or DPM plus BGMP. Forces are expressed as percentages of the average force developed at 40 Hz by time- and stimulus-matched control muscle (shown±SE by horizontal dashed lines)."}, "b-NOS": {"tested_on": "b-NOS", "conditions": "Moore et al.; cited from earlier work"}}}
{"compound": "N=C(N)NN", "note": "[AMG, aminoguanidine]", "values": [{"measurement": "NOS isoform selectivity", "setting": "other NOS isoforms", "value": "relative selectivity towards other NOS isoforms"}, {"measurement": "contractile increases (force-frequency relationship)", "setting": "[1]", "value": "Similar, albeit smaller, contractile increases"}]}
{"compound": "Nc1nc2c(nc(Br)n2[C@@H]2O[C@@H]3COP(=O)(O)O[C@H]3[C@H]2O)c(=O)[nH]1", "note": "[BGMP, 8-bromo-cGMP]", "values": [{"measurement": "effect on contractile increases caused by NOS inhibition", "setting": "[2]; 40 Hz, FIG. 5", "value": "reversed"}, {"measurement": "force developed at 40 Hz, compared with control", "setting": "[2]; NLA-treated bundles, DPM 10 uM, FIG. 5, p<0.0001", "value": "greater than control"}]}
{"compound": "OCCN(CCO)c1nc(N2CCCCC2)c2nc(N(CCO)CCO)nc(N3CCCCC3)c2n1", "note": "[DPM, dipyridamole]", "values": [{"measurement": "effect on contractile increases caused by NOS inhibition", "setting": "[2]; 40 Hz, FIG. 5", "value": "reversed"}]}
{"compound": "N=C(N)NCCC[C@H](N)C(=O)O", "note": "[L-arginine]", "values": [{"measurement": "contractile increases (force-frequency relationship)", "setting": "[1]", "value": "not"}]}
{"compound": "O=[N+]([O-])c1cccc2cn[nH]c12", "note": "[NIZ, 7-nitroindazole]", "values": [{"measurement": "effect on contractile function (force-frequency relationship)", "setting": "[1]; 100 uM, p<0.05", "value": "Significant effects"}, {"measurement": "effect on contractile function (force-frequency curve)", "setting": "[1]; 1 mM, FIG. 4A", "value": "profoundly influenced contractile function, causing the diaphragm force-frequency curve to closely approximate that of the soleus"}, {"measurement": "shift of the diaphragm force-frequency relationship", "setting": "[1]; 1 mM, FIG. 4A, repeated measures ANOVA", "value": "shifted the diaphragm force-frequency relationship up and to the left (p<0.0001 by repeated measures ANOVA) such that it was indistinguishable from the relationship measured in untreated soleus"}, {"measurement": "NOS isoform specificity", "setting": "b-NOS", "value": "b-NOS specific inhibitor"}]}
{"compound": "CC(=O)N[C@@H](CSN=O)C(=O)O", "note": "[SNAC, S-nitroso-N-acetylcysteine]", "values": [{"measurement": "contractile function with exogenous NO donor", "setting": "[2]; 100 uM, FIG. 4B", "value": "depressing contractile function"}, {"measurement": "force developed at 40 Hz, compared with control", "setting": "[2]; 40 Hz, SNAC 100 uM, NP 100 uM, NLA 10 mM, FIG. 4B", "value": "not different from control"}]}
{"compound": "CN(C)c1ccc2nc3ccc(=[N+](C)C)cc-3sc2c1", "note": "[methylene blue]", "values": [{"measurement": "force production during submaximal tetanic contraction", "setting": "[2]; 10 uM, p<0.001, data not shown", "value": "increased force production"}]}
{"compound": "Hemoglobin", "values": [{"measurement": "force production during submaximal tetanic contraction", "setting": "[2]; 40 Hz, 50 uM, n=5, p=0.052", "value": "enhances force production"}, {"measurement": "force production during submaximal tetanic contraction", "setting": "[2]; 40 Hz, 50-250 uM, n=10, p<0.001", "value": "enhances force production"}]}
